{"source": "paper PMC9951290", "about": "“Comprehensive Structure–Activity Relationship Studies of Cepafungin Enabled by Biocatalytic C–H Oxidations” (ACS Central Science, 2023)", "key": {"[1]": {"assay": "Macrolactamisation of unprotected diamino acid: Lys epsilon-NH2 to vinylogous amino acid CO2H, DMTMMT (BF4 salt, 1.5 equiv), DIPEA (4 equiv); free alpha-NH2 and OH present", "conditions": "the molecule shown is the open-chain precursor, 12-membered ring, DMF, 1.0 mM, 25.0 °C"}, "RPMI 8226 cells [2]": {"tested_on": "RPMI 8226 cells", "assay": "Cytotoxicity measurement (WST-1), RPMI 8226", "assay_type": "cell-based, human", "conditions": "for Potency in cytotoxicity screening relative to natural product 1: RPMI 8226, 30 and 100 nM compound concentration, n = 3, Figure 4B; for EC50: Homo sapiens, RPMI 8226, 48 hours, WST-1, n = 3, read-out: Cytotoxicity EC50 (cell viability)", "protocol": "(§1) Cellular assays were performed on human multiple myeloma RPMI 8226 cells (Figure 4). First, relative inhibition of proteasome subunits β5 and β2 for all analogues and the natural product was measured at 30 nM compound concentration. Following incubation of the compounds in cell culture for 6 h, cells were lysed, and fluorogenic subunit-specific peptide substrates Suc-LLVY-AMC (β5) or Ac-RLR-AMC (β2) were incubated with the lysates; fluorescence readings provided relative proteasome activity levels in comparison with DMSO (Figure 4A). Next, cytotoxicity screening was performed at 30 and 100 nM concentrations for sufficient coverage of dynamic range (Figure 4B). […] Therefore, the improved cytotoxicity of phenyl cepafungin 50 likely results from a more pronounced loss of β5 function in RPMI 8226 cells. This drastic increase in proteasome inhibition may be due to π-stacking of the lipid tail phenyl ring with the β6 subunit residues Tyr106 and/or Tyr5. The β2 subunit-bound natural product has residues Tyr102 and Phe103 on the adjacent β3 subunit oriented further away from the terminal lipid methyl groups, and presumably would not facilitate π-stacking to the extent possible at the adjacent β6 subunit (see Figure 3 and Figure S4). […] These combined modifications were made in hopes that the effects of both substitutions would be additive. […] The presence of a Thr residue next to the cepafungin macrocycle appears to be favored over the ethyl side chain of desoxy-Thr analogue 44 as indicated by cytotoxicity and hydrogen-bonding seen in the cepafungin-bound crystal structure (Figures 3 and 4B).\nAMC (β5) or Ac-RLR-AMC (β2). […]\nCytotoxicity Measurements\nin DMSO) or DMSO and cultured for 48 hours. Toxicity was determined using the WST-1 assay\n(Roche) according to the protocol of the manufacturer. (n = 3)\nFigure S1. […]"}, "MM.1S": {"tested_on": "MM.1S", "conditions": "Cell line: MM.1S; Figure 2; cited from earlier work"}, "Mino [3]": {"tested_on": "Mino", "conditions": "Cell line: Mino; Figure 2; cited from earlier work"}, "Mino BtzR": {"tested_on": "Mino BtzR", "conditions": "Cell line: Mino BtzR; Figure 2; cited from earlier work"}, "MM.1S BtzR": {"tested_on": "MM.1S BtzR", "conditions": "Cell line: MM.1S BtzR; Figure 2; cited from earlier work"}, "H929": {"tested_on": "H929", "assay": "Cytotoxicity measurement (WST-1), H929", "conditions": "Homo sapiens, NCI-H929, 48 h, read-out: Cytotoxicity EC50", "quoted_text": "(§2) Cells of the indicated cell line origin were seeded in a 96-well plate (20,000 cells/well) in\n(§3) cell culture media supplemented with indicated compounds at given concentrations (1,000x stock\n(§4) in DMSO) or DMSO and cultured for 48 hours. Toxicity was determined using the WST-1 assay (Roche) according to the protocol of the manufacturer. (n = 3)"}, "JeKo-1": {"tested_on": "JeKo-1", "assay": "Cytotoxicity measurement (WST-1), JeKo-1", "conditions": "Homo sapiens, JeKo-1, 48 h, read-out: Cytotoxicity EC50", "quoted_text": "as §2, §3, §4"}, "RPMI 8226 cells [4]": {"tested_on": "RPMI 8226 cells", "assay": "Cytotoxicity measurement (WST-1), RPMI 8226", "assay_type": "cell-based", "conditions": "Homo sapiens, 24 h; RPMI 8226, used as treatment concentration for proteomics"}, "U266": {"tested_on": "U266", "assay": "Cytotoxicity measurement (WST-1), U266", "conditions": "Homo sapiens, U-266, 48 h, read-out: Cytotoxicity EC50", "quoted_text": "as §2, §3, §4"}, "Mino [5]": {"tested_on": "Mino", "assay": "Cytotoxicity measurement (WST-1), Mino", "conditions": "Homo sapiens, 48 h, read-out: Cytotoxicity EC50", "quoted_text": "as §2, §3, §4"}, "HBL2": {"tested_on": "HBL2", "assay": "Cytotoxicity measurement (WST-1), HBL2", "conditions": "Homo sapiens, HBL2, 48 h, read-out: Cytotoxicity EC50", "quoted_text": "as §2, §3, §4"}, "RPMI 8226 cells [6]": {"tested_on": "RPMI 8226 cells", "conditions": "∼3700 proteins quantified, 19 in common; cited from earlier work"}, "RPMI 8226 cells [7]": {"tested_on": "RPMI 8226 cells", "assay": "Global proteomics analysis via LC-MS/MS of RPMI 8226 cells treated with BTZ or 50 (Table S5)", "assay_type": "cell-based, human", "quoted_text": "Finally, we evaluated the changes in global protein expression following treatment of RPMI 8226 cells with either BTZ or 50. […] Following treatment, cells were collected via centrifugation, and protein lysates were digested with trypsin and analyzed using LC-MS/MS.\nGlobal proteomics analysis via LC-MS/MS.\nRPMI 8226 cells were seeded in a 6-well plate (1,000,000 cells/well) in cell culture media supplemented with DMSO, BTZ (2.5 nM, 1000x stock in DMSO), or 50 (3 nM, 1000x stock in DMSO) for 14 h. Cells were centrifuged (3,000 x g 5 min 4°C) and washed twice with PBS. Cell pellets were resuspended in PBS and protein concentration was determined using the Bradford assay (Bio-Rad). Urea (9 M in 100 mM NH4HCO3 pH 8) was added to a final concentration of 6 M to 30 µg lysate (15 µL PBS). […] Peptides were resuspended in water with 0.1 % FA and analyzed using EASY-nLC 1200 nano-UHPLC coupled to Q Exactive HF-X Quadrupole-Orbitrap mass spectrometer (Thermo Scientific). […]\nThe MS data were analyzed with MaxQuant (V2.0.3.0) and searched against the human proteome (Uniprot) and a common list of contaminants (included in MaxQuant). […] The minimum peptide length was set to 6 amino acids and peptide re-quantification and “match between runs” was enabled. […]"}, "proteasome subunit β5 [8]": {"target": "T1, proteasome subunit β5 (Homo sapiens, UniProt P28074)", "T1 construct": "Following incubation of the compounds in cell culture for 6 h, cells were lysed; endogenous in cells; host or cells: RPMI 8226 (human multiple myeloma)", "conditions": "in situ in RPMI 8226 cells; preliminary analogue series, Figure 2; cited from earlier work"}, "proteasome subunit β5 [9]": {"target": "T1, proteasome subunit β5", "assay": "In situ β5 proteasome activity assay (Suc-LLVY-AMC) in RPMI 8226 cells", "assay_type": "cell-based", "source_text": "A preliminary series of analogues, including the natural product glidobactin A (2), were synthesized by largely the same route (Scheme 2B, Figure 2).[36] Desoxycepafungin (38) was synthesized from Boc-Lys(Boc)-OH by peptide couplings/macrocyclization to assess the role of the macrocycle hydroxylation in 1 toward proteasome inhibition. The saturated cepafungin analogue 39 was designed to address the possible role of rigidity in the tail fragment induced by the diene seen in many natural cepafungins and glidobactins. An analogue bearing unsaturation at its macrocyclic lysine was envisioned to provide a head-to-head comparison between the cepafungin and syringolin macrocyclic core. […] Proteasome subunit β5 IC50 values were determined in situ in RPMI 8226 cells. In close agreement with prior measurement of β5 IC50 for natural 1 and 2 in purified yeast proteasome,[12] in our hands the additional branching methyl in 1 indeed leads to ca. 5-fold improved IC50 compared to 2 in RPMI 8226 cells. […] Likewise, saturation of the fatty acid fragment in 39 causes ca. 14-fold decrease in β5 inhibition. This preliminary series of analogues highlighted that the macrocyclic hydroxylation, fatty acid unsaturation, and terminal lipid functionality are critical for potent proteasome inhibitory activity.\nas §1, with “and 4B). […]” for “and 4B).”\nMammalian cell culture and lysate preparation\nMammalian cells were maintained in RPMI-1640 media. All media were supplemented with 10% fetal bovine serum (FBS, Life Technologies Cat# 10437028), non-essential amino acids (Sigma-Aldrich Cat# M7145) and penicillin/streptomycin (Sigma-Aldrich Cat# P4333). Cells were grown at 37 °C under 5% CO2 atmosphere. […] Cells were lysed by needle sonication to obtain cell lysates and protein concentration was determined using the […]\nfluorescence was read at A360ex/A460em. […]"}}, "note": "Read-outs that look alike come from different tables or passages of the source."}
{"smiles": "CC(C)[C@@H](/C=C/C(=O)O)NC(=O)[C@@H](N)C[C@@H](O)CCN", "values": [{"measurement": "ring closure, yield by NMR", "setting": "[1]; 36.0 h", "value": 47, "unit": "%"}]}
{"smiles": "C[C@@H](/C=C/C(=O)O)NC(=O)[C@@H](N)CC(=O)CCN", "values": [{"measurement": "ring closure, yield by NMR", "setting": "[1]; 36.0 h", "value": 51, "unit": "%"}]}
{"smiles": "C[C@@H](/C=C/C(=O)O)NC(=O)[C@@H](N)C[C@H](O)CCN", "values": [{"measurement": "ring closure, yield by NMR", "setting": "[1]; 36.0 h", "value": 59, "unit": "%"}]}
{"smiles": "CC(C)CCCCC/C=C/C=C/C(=O)N[C@H](C(=O)N[C@H]1C[C@@H](O)CCNC(=O)/C=C/[C@H](C(C)C)NC1=O)[C@@H](C)O", "note": "[compound 43, valinyl cepafungin]", "values": [{"measurement": "Potency in cytotoxicity screening relative to natural product 1", "setting": "RPMI 8226 cells [2]", "value": "more potent than the parent natural product 1"}]}
{"smiles": "CC(C)CCCCC/C=C/C=C/C(=O)N[C@H](C(=O)N[C@H]1CC(=O)CCNC(=O)/C=C/[C@H](C)NC1=O)[C@@H](C)O", "note": "[compound 42, keto cepafungin]", "values": [{"measurement": "Potency in cytotoxicity screening relative to natural product 1", "setting": "RPMI 8226 cells [2]", "value": "potency approaching that of the natural product"}]}
{"smiles": "C[C@@H](/C=C/C(=O)O)NC(=O)[C@@H](N)C[C@@H](O)CCN", "values": [{"measurement": "ring closure, yield by NMR", "setting": "[1]", "value": 63, "unit": "%"}]}
{"smiles": "CCCCCCCCCCCCNC(=O)N[C@H](C(=O)N[C@H]1/C=C/CCNC(=O)/C=C/[C@H](C)NC1=O)C(C)C", "note": "[compound 37, TIR-199]", "values": [{"measurement": "EC50", "setting": "MM.1S", "value": "48 ± 8.7", "unit": "nM"}, {"measurement": "EC50", "setting": "Mino [3]", "value": "64 ± 2.1", "unit": "nM"}, {"measurement": "EC50", "setting": "Mino BtzR", "value": "130 ± 2", "unit": "nM"}, {"measurement": "EC50", "setting": "MM.1S BtzR", "value": "81 ± 5.8", "unit": "nM"}]}
{"smiles": "CC(C)C[C@H](NC(=O)[C@H](Cc1ccccc1)NC(=O)c1cnccn1)B(O)O", "note": "[bortezomib]", "values": [{"measurement": "EC50", "setting": "H929", "value": "1.5 ± 0.2", "unit": "nM"}, {"measurement": "EC50", "setting": "MM.1S", "value": "2.3 ± 0.03", "unit": "nM"}, {"measurement": "EC50", "setting": "Mino [3]", "value": "10 ± 0.4", "unit": "nM"}, {"measurement": "EC50", "setting": "JeKo-1", "value": "7 ± 0.5", "unit": "nM"}, {"measurement": "EC50", "setting": "Mino BtzR", "value": "23 ± 1.1", "unit": "nM"}, {"measurement": "EC50", "setting": "RPMI 8226 cells [4]", "value": 2.5, "unit": "nM"}, {"measurement": "EC50", "setting": "RPMI 8226 cells [2]", "value": "2.2 ± 0.1", "unit": "nM"}, {"measurement": "EC50", "setting": "U266", "value": "3.1 ± 0.1", "unit": "nM"}, {"measurement": "EC50", "setting": "MM.1S BtzR", "value": "28 ± 0.6", "unit": "nM"}, {"measurement": "EC50", "setting": "Mino [5]", "value": "7.4 ± 0.3", "unit": "nM"}, {"measurement": "EC50", "setting": "HBL2", "value": "2.5 ± 0.4", "unit": "nM"}, {"measurement": "number of proteins upregulated compared to DMSO control", "setting": "RPMI 8226 cells [6]", "value": 25, "unit": "proteins"}, {"measurement": "overlap of upregulated proteins commonly affected by BTZ and 50", "setting": "RPMI 8226 cells [7]; 17 common proteins", "value": 59, "unit": "%"}, {"measurement": "number of proteins with statistically significant increase in expression", "setting": "RPMI 8226 cells [7]; RPMI 8226, 14 h, 2.5 nM BTZ or 3 nM 50 vs DMSO, out of 4080 quantified, FDR 5%, S0 0.1", "value": 29, "unit": "proteins"}]}
{"smiles": "CCCCCCC/C=C/C=C/C(=O)N[C@H](C(=O)N[C@H]1C[C@@H](O)CCNC(=O)/C=C/[C@H](C)NC1=O)[C@@H](C)O", "note": "[compound 2, glidobactin A]", "values": [{"measurement": "IC50", "setting": "proteasome subunit β5 [8]", "value": "77 ± 5", "unit": "nM"}]}
{"smiles": "CC(C)CCCCC/C=C/C=C/C(=O)N[C@H](C(=O)N[C@H]1CCCCNC(=O)/C=C/[C@H](C)NC1=O)[C@@H](C)O", "note": "[compound 38, Desoxycepafungin]", "values": [{"measurement": "fold higher IC50 than 1", "setting": "proteasome subunit β5 [9]; β5, RPMI 8226 cells", "value": "ca. 11 fold"}, {"measurement": "IC50", "setting": "proteasome subunit β5 [8]", "value": "184 ± 29", "unit": "nM"}]}
{"smiles": "C[C@@H](/C=C/C(=O)O)NC(=O)[C@@H](N)[C@@H](O)CCCN", "values": [{"measurement": "ring closure, yield by NMR", "setting": "[1]; 36.0 h", "value": 47, "unit": "%"}]}
{"smiles": "CC(C)CCCCC/C=C/C=C/C(=O)N[C@H](C(=O)N[C@H]1C[C@H](O)CCNC(=O)/C=C/[C@H](C)NC1=O)[C@@H](C)O", "note": "[compound 40, epi-4-OH cepafungin]", "values": [{"measurement": "Potency in cytotoxicity screening relative to natural product 1", "setting": "RPMI 8226 cells [2]", "value": "nearly inactive at both concentrations"}]}
{"smiles": "CC(C)CCCCC/C=C/C=C/C(=O)N[C@H](C(=O)N[C@@H]1C(=O)N[C@@H](C)/C=C/C(=O)NCCC[C@@H]1O)[C@@H](C)O", "note": "[compound 41, 3-OH cepafungin]", "values": [{"measurement": "Potency in cytotoxicity screening relative to natural product 1", "setting": "RPMI 8226 cells [2]", "value": "nearly inactive at both concentrations"}]}
{"smiles": "CC(C)CCCCCCCCCC(=O)NC(C(=O)NC1CC(O)CCNC(=O)C=CC(C)NC1=O)C(C)O", "note": "(stereo not drawn) [compound 39]", "values": [{"measurement": "fold decrease in β5 inhibition on saturation of the fatty acid fragment", "setting": "proteasome subunit β5 [9]; 39 versus 1, RPMI 8226 cells", "value": "ca. 14 fold"}, {"measurement": "IC50", "setting": "proteasome subunit β5 [8]", "value": "219 ± 11", "unit": "nM"}]}
{"smiles": "CC(C)[C@H]1/C=C/C(=O)NCC[C@H](O)C[C@H](NC(=O)[C@@H](NC(=O)/C=C/C=C/CCCCCc2ccccc2)[C@@H](C)O)C(=O)N1", "note": "[S39]", "values": [{"measurement": "EC50", "setting": "RPMI 8226 cells [2]", "value": 4.5, "unit": "nM"}]}
